This is an account of results in patent US20210395239A1 (Hoffmann-La Roche Inc., priority 2018, published 2021).

The assay has as its target T1, hTLR9 (Homo sapiens, UniProt Q9NR96).
T1 sequence (Q9NR96 26-1032): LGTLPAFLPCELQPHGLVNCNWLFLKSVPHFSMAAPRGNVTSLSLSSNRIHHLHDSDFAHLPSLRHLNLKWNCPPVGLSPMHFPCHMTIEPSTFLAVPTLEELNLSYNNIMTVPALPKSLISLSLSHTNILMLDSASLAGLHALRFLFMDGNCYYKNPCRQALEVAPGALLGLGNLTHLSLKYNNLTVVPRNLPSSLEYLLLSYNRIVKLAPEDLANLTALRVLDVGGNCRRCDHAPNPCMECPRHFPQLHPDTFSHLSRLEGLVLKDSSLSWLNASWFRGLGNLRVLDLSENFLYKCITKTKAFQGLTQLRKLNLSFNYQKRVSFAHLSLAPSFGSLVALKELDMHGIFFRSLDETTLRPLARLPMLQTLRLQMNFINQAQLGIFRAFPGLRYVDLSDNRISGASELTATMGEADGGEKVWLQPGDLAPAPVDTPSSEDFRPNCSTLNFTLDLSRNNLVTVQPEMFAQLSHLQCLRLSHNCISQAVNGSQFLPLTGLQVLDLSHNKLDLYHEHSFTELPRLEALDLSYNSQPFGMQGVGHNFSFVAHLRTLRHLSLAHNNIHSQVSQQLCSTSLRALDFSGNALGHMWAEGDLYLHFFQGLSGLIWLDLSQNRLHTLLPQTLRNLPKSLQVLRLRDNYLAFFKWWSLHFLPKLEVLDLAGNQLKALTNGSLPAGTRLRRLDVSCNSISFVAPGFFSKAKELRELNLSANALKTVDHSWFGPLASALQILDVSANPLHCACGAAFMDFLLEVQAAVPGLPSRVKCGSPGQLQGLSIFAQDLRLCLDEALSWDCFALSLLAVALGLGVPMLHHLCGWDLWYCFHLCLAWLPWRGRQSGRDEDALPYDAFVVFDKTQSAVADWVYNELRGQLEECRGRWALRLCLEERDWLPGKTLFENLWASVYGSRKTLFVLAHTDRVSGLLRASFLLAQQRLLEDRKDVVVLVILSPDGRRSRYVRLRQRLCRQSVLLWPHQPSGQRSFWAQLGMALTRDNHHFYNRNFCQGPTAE
The assay can be described thus: HEK293-Blue-hTLR-9 cells assay (SEAP reporter, ODN2006 stimulation). The conditions noted are these: HEK293-Blue-hTLR9 cells, ODN2006, 20 hrs; read-out: HEK/hTLR9 IC50. Also on record: host or cells: HEK293 (HEK-Blue hTLR9). It is filed as cell-based. In a few lines: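 Antagonism read as lowered SEAP reporter absorbance (620–655 nm, QUANTI-Blue, 2 h, 37 °C) in supernatants. Before that, ODN2006-stimulated HEK293-Blue cells stably expressing human TLR9 were exposed to compound dilutions at 1% final DMSO for 20 h at 37 °C.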
`C[C@@H]1CN(c2cc(=O)n(C)c3ncccc23)C[C@H](CN2CC(c3ccc(N4CC5(CN(C)C5)C4)cc3)C2)O1` [Example 180, 1-methyl-4-[(2R,6S)-2-methyl-6-[[3-[4-(6-methyl-2,6-diazaspiro[3.3]heptan-2-yl)phenyl]azetidin-1-yl]methyl]morpholin-4-yl]-1,8-naphthyridin-2-one]: the IC50 was 41 nM.

On to `C[C@@H]1CN(c2cc(=O)n(C)c3ncccc23)C[C@H](CN2CC(c3ccc(N4C[C@H]5NCCO[C@@H]5C4)cc3)C2)O1` [Example 182, 4-[(2S,6R)-2-[[3-[4-[(4aR,7aR)-3,4,4a,5,7,7a-hexahydro-2H-pyrrolo[3,4-b][1,4]oxazin-6-yl]phenyl]azetidin-1-yl]methyl]-6-methyl-morpholin-4-yl]-1-methyl-1,8-naphthyridin-2-one], for which the IC50 was 39 nM. As for `C[C@@H]1CN(c2ccc(C#N)n3ncc(F)c23)C[C@H](CN2CCN(c3ccc([C@@H]4CNCCO4)c(F)c3)CC2)O1` [Example 184, 3-fluoro-4-[(2S,6R)-2-[[4-[3-fluoro-4-[(2R)-morpholin-2-yl]phenyl]piperazin-1-yl]methyl]-6-methyl-morpholin-4-yl]pyrazolo[1,5-a]pyridine-7-carbonitrile], the IC50 was 124 nM. The same measure for `C[C@@H]1CN(c2ccc(C#N)n3ncc(F)c23)C[C@H](CN2CCN(c3ccc(C4(C)CNCCO4)cc3)CC2)O1` (stereo partly drawn) [Example 185, 3-fluoro-4-[(2R,6S)-2-methyl-6-[[4-[4-(2-methylmorpholin-2-yl)phenyl]piperazin-1-yl]methyl]morpholin-4-yl]pyrazolo[1,5-a]pyridine-7-carbonitrile]: 186 nM; for `C[C@@H]1CN(c2ccc(C#N)n3ncc(F)c23)C[C@H](CN2CCN(c3ccc(C[C@@H]4CNCCO4)cc3)CC2)O1` [Example 186, 3-fluoro-4-[(2R,6S)-2-methyl-6-[[4-[4-[[(2R)-morpholin-2-yl]methyl]phenyl]piperazin-1-yl]methyl]morpholin-4-yl]pyrazolo[1,5-a]pyridine-7-carbonitrile]: 124 nM.
